This note sets out measurements from ChEMBL document CHEMBL1123742, “Isozyme-specific enzyme inhibitors. 13. S-[5'(R)-[(N-triphosphoamino)methyl]adenosyl]-L-homocysteine, a potent inhibitor of rat methionine adenosyltransferases” (J Med Chem, 1987).

Molecules are shown by their SMILES.

Format in all cases: protein assay
In assay [1] the target is T1, S-adenosylmethionine synthetase (MAT 1 and MAT 2) (Rattus norvegicus, UniProt P13444+P18298). Nature of the assay: Inhibition constant of compound with Novikoff ascitic hepatoma (M-T) form of rat methionine adenosyltransferase when ATP was used as variable substrate;Competitive type of inhibition.
Assay [2] addresses T1, S-adenosylmethionine synthetase (MAT 1 and MAT 2). Briefly: Inhibition constant of compound with kidney (M-2) form of rat methionine adenosyltransferase when methionine was used as variable substrate;Simple non-competitive type of inhibition.
Assay [3] has the same target. Nature of the assay: Inhibition constant of compound with kidney (M-2) form of rat methionine adenosyltransferase when ATP was used as variable substrate;Competitive type of inhibition.
The target is the same in assay [4]. Briefly: Inhibition constant of compound with Novikoff ascitic hepatoma (M-T) form of rat methionine adenosyltransferase when methionine was used as variable substrate;Simple non-competitive type of inhibition.

Broadly, the Ki is a measure of affinity in units of concentration, obtained from inhibition or displacement.

Consider `Nc1ncnc2c1ncn2[C@@H]1O[C@H]([C@@H](CNP(=O)(O)OP(=O)(O)OP(=O)(O)O)SCCC(N)C(=O)O)[C@@H](O)[C@H]1O` (some centres undefined), for which, in assay [1], the inhibition constant Ki was determined as 20 µM.
Turning to `Nc1ncnc2c1ncn2C1O[C@H](CCNP(=O)(O)OP(=O)(O)OP(=O)(O)O)[C@@H](O)[C@H]1O` (some centres undefined), the Ki in assay [2] is 580 µM; in assay [3], 14 µM.
As to `Nc1ncnc2c1ncn2C1O[C@H]([C@H](CNP(=O)(O)OP(=O)(O)OP(=O)(O)O)SCCC(N)C(=O)O)[C@@H](O)[C@H]1O` (some centres undefined), the Ki in assay [1] was determined as 0.27 µM; in assay [4], 2.3 µM; in assay [2], 3 µM; in assay [3], 0.36 µM.
In assay [3], `Nc1ncnc2c1ncn2[C@@H]1O[C@H](C(CP(=O)(O)OP(=O)(O)OP(=O)(O)O)SCCC(N)C(=O)O)[C@@H](O)[C@H]1O` (single isomer, unassigned; isomer A) had an inhibition constant Ki of 39 µM.
In assay [3], `Nc1ncnc2c1ncn2[C@@H]1O[C@H](C(CP(=O)(O)OP(=O)(O)OP(=O)(O)O)SCCC(N)C(=O)O)[C@@H](O)[C@H]1O` (single isomer, unassigned; isomer B) returned a Ki of 180 µM.
